The values below come from paper PMC10792010, “Analysis of vitamin D receptor binding affinities of enzymatically synthesized triterpenes including ambrein and unnatural onoceroids” (Scientific Reports, 2024).

One assay has as its target T1, human VDR (Homo sapiens, UniProt P11473).
T1 construct: made in house; host or cells: E. coli (cell lysate used)
T1 sequence (P11473 127-423 limits assumed): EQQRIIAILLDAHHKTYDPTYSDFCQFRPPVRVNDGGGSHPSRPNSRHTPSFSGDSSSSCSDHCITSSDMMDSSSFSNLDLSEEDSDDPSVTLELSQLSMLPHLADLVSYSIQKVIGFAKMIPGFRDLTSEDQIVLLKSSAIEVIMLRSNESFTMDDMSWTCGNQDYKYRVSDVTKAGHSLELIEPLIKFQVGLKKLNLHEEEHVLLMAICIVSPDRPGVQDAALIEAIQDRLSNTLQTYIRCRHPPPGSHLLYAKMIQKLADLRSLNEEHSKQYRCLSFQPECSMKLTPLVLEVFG
The assay can be described thus: VDR binding affinity, split-luciferase vitamin D biosensor. The conditions noted are these: for Relative binding affinity: normalized to that of 1; for VDR binding affinity (in words): comparison between compounds, Fig. 3a. The procedure: The binding affinity of each compound for the human VDR was evaluated as described previously[10],[19]. In brief, 49 μL of cell lysate derived from recombinant E. coli expressing split-luciferase vitamin D biosensor protein was added to individual wells of a 96-well plate. Next, 1 μL of ethanol solution of each compound at appropriate concentrations was added to each well and incubated for 30 min at 25 °C. Subsequently, 50 μL of the Luciferin solution containing 20 mM of MgSO4, 2 mM of D-luciferin, and 4 mM of adenosine triphosphate in 25 mM Tris–HCl (pH 7.4) was introduced into each well and incubated for 30 min at 25 °C. The luminescence (photon counts) was measured using a luminometer (Infinite 200 Pro 96-microplate luminometer, Tecan, Switzerland). […] X values were calculated using the following equation: X=10^logA/B×50-C/D-C+logB.
In this equation, A and B correspond to concentrations near 50% of the maximum relative light intensity. C and D represent the relative light intensity (%) at concentrations B and A, respectively.

A further assay relates to RAW264.7 cells. The assay can be described thus: Osteoclastic differentiation-promoting activity (TRAP-positive multinucleated osteoclasts). The format is cell-based. Conditions: sRANKL 100 ng/mL, 4 days; relative to 50 μM 1, Fig. 4. The method, then: RAW264.7 cells were used as pre-osteoclastic cells. Cells were cultured in α-MEM medium containing 10% fetal bovine serum, 2 mM L-glutamine, 100 U/mL penicillin, and 100 μg/mL streptomycin. Osteoclastic differentiation was induced following treatment with 100 ng/mL sRANKL (Oriental Yeast, Japan), and each sample was added to the medium and incubated for 4 days with 5% CO2 at 37 °C. Cells were fixed in 10% glutaraldehyde for 15 min at 37 °C and subsequently incubated for 10 min at 37 °C in tartrate-resistant acid phosphatase (TRAP) buffer, containing 0.1 M sodium acetate, 0.1 M acetic acid, 10 mg/mL naphthol AS-MX phosphate, 0.1% Triton X-100, 0.3 M potassium tartrate, and 0.3 mg/mL Fast Red Violet LB Salt. TRAP-positive dark-red cells with more than three nuclei were manually counted under a light microscope (20× objective) as multinucleated osteoclasts. Y-27632[22] was used as a positive control.

Setting [1] is: split-luciferase biosensor lysate, 25 °C, mean ± SD of at least triplicate determinations, read-out: Concentration at 50% maximum light intensity.

Entries after “also recorded” stand apart in the source; their conditions may differ. Read-outs that look alike come from different tables or passages of the source.

With `C=C1CCCC(C)(C)[C@@H]1CC/C(C)=C/CC[C@@H]1[C@@]2(C)CCCC(C)(C)[C@@H]2CC[C@@]1(C)O` [compound 1, ambrein], on human VDR (Fig. 2b, Table S1, read-out: EC50 value (VDR binding affinity)), the EC50 stood at 112 ± 29 µM. This molecule returned a Relative binding affinity on human VDR of 1.
Molecule `C=C1CCC(O)CC1=CC=C1CCCC2(C)C1CCC2C(C)CCCC(C)(C)O` (stereo not shown) [VD-II, 25-hydroxyvitamin D3, reference compound] gave a Relative binding affinity at human VDR of 1510. For the same molecule, at human VDR (setting [1]), the EC50 was found to be 0.074 ± 0.015 µM.
For the molecule `C=C1CC[C@H]2C(C)(C)[C@@H](O)CC[C@]2(C)[C@H]1CC[C@@H]1[C@@]2(C)CCCC(C)(C)[C@@H]2CC[C@@]1(C)O` [compound 14], at human VDR, the “VDR binding affinity (in words)” value was “higher affinity than 10 and 15”. Also, the EC50 on human VDR (setting [1]) came out at 13.9 ± 2.5 µM.
For the molecule `CC(C)=CCC/C(C)=C/CC/C(C)=C/CC[C@@H]1[C@@]2(C)CCCC(C)(C)[C@@H]2CC[C@@]1(C)O` [compound 3], at human VDR, the Relative binding affinity is reported as 0.88. The EC50 at human VDR (setting [1]) turned out to be 128 ± 38 µM. Moreover, the “osteoclastic differentiation-promoting activity (in words)” value in the assay with RAW264.7 cells is “no activity”.
As for `C=C1CC[C@H]2C(C)(C)CCC[C@]2(C)[C@H]1CC[C@@H]1[C@@]2(C)CCCC(C)(C)[C@@H]2CC[C@@]1(C)O` [compound 6], on human VDR, the “VDR binding affinity (in words)” value is given as “tenfold higher than that of 1” and the Relative binding affinity is 10. Also, on human VDR (setting [1]), the EC50 was 11.1 ± 1.5 µM. Also, the “osteoclastic differentiation-promoting activity (in words)” value with RAW264.7 cells was “not comparable to that of 1”.
As to `C=C1CCCC(C)(C)C1CC/C(C)=C/CC/C=C(\C)CC/C=C(\C)CCC=C(C)C` (stereo not shown) [compound 4], the “relative intensity at a concentration of 100 μM” value at human VDR (100 μM, relative light intensity compared to control (1% ethanol)) is on record as 0.82 ± 0.07. Moreover, on human VDR, the “VDR binding affinity (in words)” value is given as “did not bind to the VDR; also recorded: very low VDR binding affinity”.
As to `CC1=CC[C@H]2C(C)(C)CCC[C@]2(C)[C@H]1CC[C@@H]1[C@@]2(C)CCCC(C)(C)[C@@H]2CC[C@@]1(C)O` [compound 11], on human VDR, the “VDR binding affinity (in words)” value was “higher affinity than 10 and 15”; the Relative binding affinity stood at 8.9. Moreover, the EC50 at human VDR (setting [1]) worked out at 12.6 ± 2.1 µM.
For the molecule `C=C1CC[C@H](O)C(C)(C)[C@@H]1CC/C(C)=C/CC[C@@H]1[C@@]2(C)CCCC(C)(C)[C@@H]2CC[C@@]1(C)O` [compound 15], the Relative binding affinity at human VDR stood at 2.5. Also, on human VDR (setting [1]), the EC50 was determined as 45.2 ± 17.1 µM.
For `C/C(=C\CC[C@@H]1[C@@]2(C)CCCC(C)(C)[C@@H]2CC[C@@]1(C)O)CC[C@H]1C(C)(C)CCC[C@]1(C)O` [compound 10] the same measures were 4.6 and 24.6 ± 8.2 µM.
Consider `C=C1CCCC(C)(C)[C@@H]1CC/C(C)=C/CC[C@H]1C(=C)CC[C@H]2C(C)(C)CCC[C@]12C` [compound 13], for which, at human VDR, the “VDR binding affinity (in words)” value is “higher affinity than 10 and 15”; the Relative binding affinity amounted to 7.0. In addition, the EC50 at human VDR (setting [1]) was 16 ± 2.2 µM.
